These results are taken from ChEMBL document CHEMBL1156829 (Proc Natl Acad Sci U S A, 2008).

As usually defined, the CC50 is the concentration that lowers cell viability or growth by half. In general, EC50 refers to the concentration giving half of the maximal effect.

The nature of series [1]: NOVARTIS: Cytotoxicity against human hepatocellular carcinoma cell line (Huh7). The class given is toxicity, cell-based, Huh-7. The note with it: Huh7 cells (hepatocellular carcinoma cell line).
Series [2] concerns Plasmodium falciparum. Description: NOVARTIS: Inhibition of Plasmodium falciparum 3D7 (drug-susceptible) proliferation in erythrocyte-based infection assay. The class given is functional, organism-based. The note with it: Plasmodium falciparum, 3D7.
Series [3] concerns Plasmodium falciparum. Description: NOVARTIS: Inhibition of Plasmodium falciparum W2 (drug-resistant) proliferation in erythrocyte-based infection assay. The class given is functional, organism-based. As to conditions: Plasmodium falciparum, W2; read-out: EC50.

Molecule `C/N=C(\N)Nc1nc(C)c2cc(OC)ccc2n1` came in with a CC50 in series [1] above 10 µM. Moreover, the 50% effective concentration (EC50) stood at 0.662 µM in the series on Plasmodium falciparum [2] and 0.725 µM with Plasmodium falciparum [3].
Consider `O=C(C[n+]1ccc(/C=N/O)cc1)NC12CC3CC(CC(C3)C1)C2`, for which the CC50 in series [1] amounted to 42.2 µM. The EC50 was above 12.5 µM in the series on Plasmodium falciparum [2] and 3.07 µM with Plasmodium falciparum [3].
For `CC(=O)Oc1cccc(C=c2sc3ncnn3c2=O)c1` the same measures were above 10 µM, above 1.25 µM and above 0.989 µM.
In the same order, the values of `O=C(Nc1ccc(-c2nc3ccc(-c4nc5ccc(NC(=O)c6ccccc6[N+](=O)[O-])cc5[nH]4)cc3[nH]2)cc1)c1ccccc1[N+](=O)[O-]` are above 10 µM, above 1.25 µM and 0.987 µM.
In the same order, the values of `FC(F)(F)c1ccc(Nc2nnnc3ccccc23)cc1` are above 100 µM, 7.72 µM and 7.23 µM.
In series [1], `O=C(Nc1ccc(-c2nc3ccc(NC(=O)c4ccc(Br)cc4)cc3[nH]2)cc1)c1ccc(Br)cc1` came in with a CC50 of 4.19 µM. Also, the EC50 in the series with Plasmodium falciparum [2] was determined as 0.315 µM; with Plasmodium falciparum [3] it was 0.413 µM.
In the same order, the values of `CC1(C)Cc2c(oc3ncn(CCn4cnc5oc6c(c5c4=N)CC(C)(C)SC6)c(=N)c23)CS1` are above 100 µM, above 12.5 µM and 9.74 µM.
In the same order, the values of `NC(=O)c1ccc2[nH]c3c(c2c1)CCCC3` are above 100 µM, above 12.5 µM and above 7.16 µM.
In the case of `COc1cccc(-c2ccc(O)c(CNCCc3cccc(F)c3)c2)n1`, the CC50 in series [1] was above 10 µM. Further, the EC50 in the series with Plasmodium falciparum [2] worked out at 1.09 µM; in the series on Plasmodium falciparum [3] it was 0.732 µM.
`Clc1ccc(CCNC2CCN(CCc3ccccc3)CC2)cc1`: half-maximal cytotoxicity in series [1] (CC50) was put at 9.6 µM. Also, the EC50 was determined as 0.15 µM in the series on Plasmodium falciparum [2] and 0.696 µM in the series on Plasmodium falciparum [3].
In the same order, the values of `COc1cccc2c1C(=O)c1c(O)c3c(c(O)c1C2=O)C[C@@](O)(C(=O)CO)C[C@@H]3O[C@@H]1C[C@H](N)[C@H](O)[C@H](C)O1` are 0.485 µM, 0.0486 µM and 0.0477 µM.
For the molecule `CC(C)CNc1nc(NCCCN2CCCCC2C)ncc1C(=O)NCCc1ccccc1` (configuration not stated), the CC50 in series [1] was above 10 µM. For the same molecule, the EC50 with Plasmodium falciparum [2] worked out at 0.383 µM; with Plasmodium falciparum [3], 0.729 µM.
In the same order, the values of `c1ccc2c(NCCNc3c4ccccc4nc4ccccc34)c3ccccc3nc2c1` are 11.8 µM, 0.0829 µM and 0.858 µM.
In the same order, the values of `COc1ccc(Cn2cccc(C(=O)Nc3ccc(OC)cc3)c2=O)cc1` are 42.5 µM, above 12.5 µM and 3.11 µM.
In the case of `CCOCCCNC(=O)C1CCCN(S(=O)(=O)c2ccc(C)cc2)C1` (configuration not stated), in series [1], the CC50 was above 10 µM. The EC50 in the series with Plasmodium falciparum [2] is above 0.659 µM; in the series on Plasmodium falciparum [3], above 0.73 µM.
As for `CC(C)CNC(=O)c1cnc(NCCc2ccncc2)nc1NCCc1ccccc1`, in series [1], the CC50 is above 10 µM. Further, the EC50 with Plasmodium falciparum [2] is 0.809 µM; in the series on Plasmodium falciparum [3], 0.728 µM.
Regarding `Cc1cc(C)cc(NC(=O)c2cc(-c3ccc(Cl)cc3)nc3ccccc23)c1`, the CC50 in series [1] was above 10 µM. The figures for the EC50 in the series on Plasmodium falciparum [2] and in the series with Plasmodium falciparum [3] were above 1.25 µM and above 0.716 µM, respectively.
`CCOC(=O)c1c(NC(=O)c2cccnc2)sc(C)c1CC` gave a CC50 in series [1] above 10 µM. The values for the EC50 in the series on Plasmodium falciparum [2] and with Plasmodium falciparum [3] were above 1.09 µM and above 0.714 µM, respectively.
For `O=S(=O)(NCCCCNc1ccnc2cc(Cl)ccc12)c1ccc(F)cc1` the same measures were above 10 µM, 0.341 µM and 0.713 µM.
Molecule `CCOc1ccc(N=C2NC(=O)S/C2=C2/C(=O)Nc3ccc(Br)cc32)cc1` came in with a CC50 in series [1] above 10 µM. Besides, the figures for the EC50 in the series with Plasmodium falciparum [2] and in the series with Plasmodium falciparum [3] were above 1.25 µM and above 0.72 µM, respectively.
In the same order, the values of `CCOC(=O)N1CCN(c2ccc(C(F)(F)F)cn2)CC1` are above 100 µM, above 12.5 µM and 7.18 µM.
`Cc1cccc(C)c1N(CC(=O)NCc1ccco1)S(C)(=O)=O` came in with a CC50 in series [1] above 10 µM. The EC50 with Plasmodium falciparum [2] was 0.851 µM; in the series on Plasmodium falciparum [3], 0.725 µM.
In the same order, the values of `COc1cccc2c(C)cc(NCc3ccccc3Cl)nc12` are above 10 µM, above 1.25 µM and above 0.985 µM.
Molecule `COc1ccc(-n2nc(C(=O)NCCC3=CCCCC3)c3ccccc3c2=O)cc1` gave a 50% cytotoxic concentration (CC50) in series [1] above 100 µM. In addition, the EC50 with Plasmodium falciparum [2] was 7.22 µM; in the series with Plasmodium falciparum [3], above 9.81 µM.
For `O=C(NCCCCCCNC(=O)Nc1nc(-c2ccc(F)cc2)cs1)Nc1nc(-c2ccc(F)cc2)cs1` the same measures were 51.6 µM, 5.97 µM and 5.06 µM.
In the case of `Cc1cc(N2CCC(C)CC2)nc2ccc(NC(=O)c3ccc([N+](=O)[O-])o3)cc12`, it took 21.9 µM to reach half-maximal cytotoxicity in series [1] (CC50). For the same molecule, the EC50 was 1.66 µM with Plasmodium falciparum [2] and 2.14 µM in the series with Plasmodium falciparum [3].
In the same order, the values of `Cc1nc2ccc(-c3ccc4nc(C)[nH]c4c3)cc2[nH]1` are 8.63 µM, 2.09 µM and 0.844 µM.
Molecule `CCOC(=O)c1cnc2ccc(OCC)cc2c1NCCN(CC)CC` had a CC50 in series [1] above 10 µM. The EC50 with Plasmodium falciparum [2] was 0.832 µM; in the series with Plasmodium falciparum [3], above 0.988 µM.
Consider `O=C1CN(C(=O)CC2CCCCC2)C(c2ccccc2)c2cc(Cl)ccc2N1` (configuration not stated), for which, in series [1], half-maximal cytotoxicity (CC50) was put at 46.3 µM. In addition, the EC50 in the series on Plasmodium falciparum [2] was 7.61 µM; in the series on Plasmodium falciparum [3], 4.57 µM.
For `CC(C)CC(=O)OC1C(N2CCCCC2)c2c(ccc(/C=C/C(=O)N3CCCCC3)c2O)OC1(C)C` (configuration not stated) the same measures were above 10 µM, 0.92 µM and 0.975 µM.
Take `COCCn1nnnc1C(c1cc2cc3c(cc2[nH]c1=O)OCCO3)N1CCC(O)CC1` (configuration not stated): the CC50 in series [1] was above 10 µM. Moreover, the half-maximal effective concentration (EC50) with Plasmodium falciparum [2] is above 1.25 µM; with Plasmodium falciparum [3], 0.974 µM.
For `COc1cc(C=NNC(=O)c2cccc3ccccc23)ccc1OCC(N)=O` the same measures were above 10 µM, above 1.25 µM and above 0.989 µM.
`CCOC(=O)c1c(NC(=O)CSc2nnc(CNC(=O)c3cccs3)n2-c2ccccc2OC)sc2c1CCC2` gave a CC50 in series [1] above 10 µM. Also, the EC50 in the series with Plasmodium falciparum [2] was above 0.619 µM; with Plasmodium falciparum [3], above 0.982 µM.
In the same order, the values of `O=C(NNc1nc(-c2cc3ccccc3oc2=O)cs1)c1ccccc1` are above 10 µM, above 1.25 µM and above 0.981 µM.
`CCCCSc1ncnc2c1c(-c1ccccc1)cn2-c1cccc(F)c1` showed a CC50 in series [1] above 10 µM. Besides, the EC50 in the series with Plasmodium falciparum [2] is above 1.25 µM; with Plasmodium falciparum [3], above 0.974 µM.
For `O=C(/C=C/c1ccccc1)c1c(-c2ccccc2)c2cc([N+](=O)[O-])ccc2[nH]c1=O` the same measures were above 10 µM, above 1.64 µM and above 0.976 µM.
In the same order, the values of `CCC(=O)NCc1nc2ccccc2n1Cc1ccc(C)cc1` are above 100 µM, above 12.5 µM and above 9.76 µM.
For `COc1ccc(CNC(=O)C(Cc2c[nH]c3ccccc23)N2CCS(=O)(=O)CC2)cc1` (configuration not stated) the same measures were 8.04 µM, 0.851 µM and 0.784 µM.
In series [1], `CCc1ccc(C=NNC(=O)COc2ccc3c(c2)OCO3)cc1` returned a CC50 above 10 µM. Also, the results for the EC50 in the series with Plasmodium falciparum [2] and in the series on Plasmodium falciparum [3] were above 1.23 µM and above 0.975 µM, respectively.
In the case of `O=C(Oc1ccc(-c2ccc(OC(=O)c3ccco3)cc2)cc1)c1ccco1`, the CC50 in series [1] is above 10 µM. In addition, the EC50 with Plasmodium falciparum [2] was above 0.738 µM; in the series with Plasmodium falciparum [3], 0.973 µM.
For `Clc1cc(C=NNC2=NCCCN2)cc(Cl)n1` the same measures were above 10 µM, 0.247 µM and above 0.718 µM.
In series [1], `N#Cc1cc(C#N)c(N2CCN(c3cccc(Cl)n3)CC2)nc1N` gave a CC50 above 10 µM. Also, the EC50 in the series on Plasmodium falciparum [2] came out at 0.791 µM; in the series on Plasmodium falciparum [3], 0.714 µM.
For `O=C(NC(=C(Cl)Cl)[P+](c1ccccc1)(c1ccccc1)c1ccccc1)c1ccc(F)cc1` the same measures were 1.74 µM, 0.954 µM and 0.171 µM.
In the same order, the values of `CCOC(=O)C1=C(C)N/C(=C\c2cc(C)n(-c3ccc(C)cc3)c2C)C1=O` are above 10 µM, 1.84 µM and 0.988 µM.
On to `O=C1CCC(c2ccc(Cl)c(Cl)c2)c2ccc(O)cc21` (configuration not stated), for which, in series [1], the CC50 is above 9.27 µM. The EC50 in the series on Plasmodium falciparum [2] was 0.449 µM; in the series on Plasmodium falciparum [3], above 0.914 µM.
The molecule `CCOc1cc(Br)cc(/C=C2\NC(=S)NC2=O)c1O` yielded a CC50 in series [1] above 10 µM. For the same molecule, the EC50 in the series on Plasmodium falciparum [2] is above 1.25 µM; with Plasmodium falciparum [3] it was above 0.973 µM.
`CCc1cc(=O)n(C)c(SC(C)C(=O)Nc2ccc(F)cc2)n1` (configuration not stated) came in with a CC50 in series [1] above 10 µM. The EC50 is 0.756 µM in the series with Plasmodium falciparum [2] and 0.729 µM in the series on Plasmodium falciparum [3].
In the same order, the values of `CC(C)(c1ccc(Oc2ccc(NC(=O)C(F)(F)F)cc2)cc1)c1cccc(Oc2ccc(NC(=O)C(F)(F)F)cc2)c1` are above 10 µM, 2.06 µM and above 0.986 µM.
In the same order, the values of `O=S(=O)(NC1CCCC1)c1cccc2nonc12` are above 10 µM, above 1.6 µM and above 0.982 µM.
In series [1], `CS(=O)(=O)c1ccccc1S(=O)(=O)N1CCC(NC(=O)c2ccccc2Cl)(C(=O)O)CC1` came in with a CC50 above 10 µM. Moreover, the EC50 is above 1.25 µM with Plasmodium falciparum [2] and above 0.725 µM with Plasmodium falciparum [3].
In series [1], `NC12CC3CC(C1)CC(SSC14CC5CC(CC(N)(C5)C1)C4)(C3)C2` gave a CC50 of 1.96 µM. The EC50 turned out to be 0.208 µM in the series with Plasmodium falciparum [2] and 0.191 µM in the series on Plasmodium falciparum [3].
In the same order, the values of `Nc1c(C(=O)NCc2ccccc2)nnn1Cc1ccc(F)cc1Cl` are above 10 µM, above 0.86 µM and 0.722 µM.
For `CCCSCCCNC(=O)c1oc2c(c1C)-c1[nH]ncc1CC2` the same measures were above 10 µM, above 1.15 µM and above 0.725 µM.
In the case of `COc1cc(OC)c(N(C)S(=O)(=O)c2cccc(C(=O)OCC(=O)Nc3ccccc3C(C)=O)c2)cc1Cl`, in series [1], the CC50 was above 100 µM. The figures for the EC50 in the series on Plasmodium falciparum [2] and with Plasmodium falciparum [3] were 8.4 µM and 7.31 µM, respectively.
